Assay results as given in patent US12655116B2, “Substituted isophthalic acid diamides” (Bayer Aktiengesellschaft, priority 2020, dated 2026).

Experiments:
[1] = tested on: AVEFA; test: Pre-emergence herbicidal action against AVEFA; assay type: in vivo, Avena fatua; settings: Avena fatua, 504 h, pre-emergence; for pest or weed control at 320 g/ha: scored visually after 3 weeks, 100% = plants have died, 0% = like control plants
Outline: (§1)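 Seeds sown in sandy loam, soil-covered; compound sprayed on soil surface pre-emergence. Application: WP/EC, 600–800 l/ha, 0.2% wetting agent. Readout: visual % damage at 3 weeks.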

[2] = tested on: VERPE; test: Post-emergence herbicidal action against VERPE; assay type: in vivo, Veronica persica; settings: Veronica persica, 504 h
Outline: (§2)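 Percent herbicidal action is rated by eye about 3 weeks after treatment against untreated controls, where 100% means dead plants and 0% means like controls. Plants in sandy loam are sprayed on green parts at the one-leaf stage with aqueous WP or EC preparations at 600 to 800 l/ha plus 0.2% wetting agent.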

[3] = tested on: ALOMY; test: Post-emergence herbicidal action against ALOMY; assay type: in vivo, Alopecurus myosuroides; settings: Alopecurus myosuroides, 504 h, visual assessment about 3 weeks after treatment vs untreated controls; for pest or weed control at 80 g/ha: dosage 80 g/ha
Outline: as §2

[4] = tested on: AMARE; test: Pre-emergence herbicidal action against AMARE; assay type: in vivo, Amaranthus retroflexus; settings: Amaranthus retroflexus, 504 h, 100% = plants have died, 0% = like control plants; for pest or weed control at 320 g/ha: scored visually after 3 weeks
Outline: as §1

[5] = tested on: AMARE; test: Post-emergence herbicidal action against AMARE; assay type: in vivo, Amaranthus retroflexus; settings: Amaranthus retroflexus, 504 h, visual assessment about 3 weeks after treatment, 100% = plants have died, 0% = like control plants
Outline: as §2

[6] = tested on: ECHCG; test: Pre-emergence herbicidal action against ECHCG; assay type: in vivo, Echinochloa crus-galli; settings: Echinochloa crus-galli, 504 h
Outline: as §1

[7] = tested on: POLCO; test: Post-emergence herbicidal action against POLCO; assay type: in vivo, Polygonum convolvulus; settings: Fallopia convolvulus, 504 h, dosage 80 g/ha
Outline: as §2

[8] = tested on: VIOTR; test: Pre-emergence herbicidal action against VIOTR; assay type: in vivo, Viola tricolor; settings: Viola tricolor, 504 h; for pest or weed control at 80 g/ha: dosage 80 g/ha; for pest or weed control at 320 g/ha: dosage 320 g/ha
Outline: as §1

[9] = tested on: MATIN; test: Post-emergence herbicidal action against MATIN; assay type: in vivo, Matricaria inodora; settings: Tripleurospermum inodorum, 504 h
Outline: as §2

[10] = tested on: AVEFA; test: Post-emergence herbicidal action against AVEFA; assay type: in vivo, Avena fatua; settings: Avena fatua, 504 h, visual assessment about 3 weeks after treatment, 100% = plants have died, 0% = like control plants
Outline: as §2

[11] = tested on: ALOMY; test: Pre-emergence herbicidal action against ALOMY; assay type: in vivo, Alopecurus myosuroides; settings: Alopecurus myosuroides, 504 h, pre-emergence; for pest or weed control at 320 g/ha: scored visually after 3 weeks, 100% = plants have died, 0% = like control plants
Outline: as §1

[12] = tested on: HORMU; test: Post-emergence herbicidal action against HORMU; assay type: in vivo, Hordeum murinum; settings: Hordeum murinum, 504 h; for pest or weed control at 80 g/ha: dosage 80 g/ha
Outline: as §2

[13] = tested on: MATIN; test: Pre-emergence herbicidal action against MATIN; assay type: in vivo, Matricaria inodora; settings: Tripleurospermum inodorum, 504 h; for pest or weed control at 80 g/ha: dosage 80 g/ha; for pest or weed control at 320 g/ha: dosage 320 g/ha
Outline: as §1

[14] = tested on: HORMU; test: Pre-emergence herbicidal action against HORMU; assay type: in vivo, Hordeum murinum; settings: Hordeum murinum, 504 h, pre-emergence
Outline: as §1

[15] = tested on: SETVI; test: Pre-emergence herbicidal action against SETVI; assay type: in vivo, Setaria viridis; settings: Setaria viridis, 504 h; for pest or weed control at 80 g/ha: dosage 80 g/ha; for pest or weed control at 320 g/ha: dosage 320 g/ha
Outline: as §1

[16] = tested on: VERPE; test: Pre-emergence herbicidal action against VERPE; assay type: in vivo, Veronica persica; settings: Veronica persica, 504 h; for pest or weed control at 320 g/ha: dosage 320 g/ha
Outline: as §1

[17] = tested on: ECHCG; test: Post-emergence herbicidal action against ECHCG; assay type: in vivo, Echinochloa crus-galli; settings: Echinochloa crus-galli, 504 h; for pest or weed control at 20 g/ha: dosage 20 g/ha; for pest or weed control at 80 g/ha: dosage 80 g/ha
Outline: as §2

[18] = tested on: VIOTR; test: Post-emergence herbicidal action against VIOTR; assay type: in vivo, Viola tricolor; settings: Viola tricolor, 504 h, 80 g/ha
Outline: as §2

[19] = tested on: STEME; test: Pre-emergence herbicidal action against STEME; assay type: in vivo, Stellaria media; settings: Stellaria media, 504 h; for pest or weed control at 80 g/ha: dosage 80 g/ha; for pest or weed control at 320 g/ha: dosage 320 g/ha
Outline: as §1

[20] = tested on: SETVI; test: Post-emergence herbicidal action against SETVI; assay type: in vivo, Setaria viridis; settings: Setaria viridis, 504 h; for pest or weed control at 80 g/ha: dosage 80 g/ha
Outline: as §2

[21] = tested on: STEME; test: Post-emergence herbicidal action against STEME; assay type: in vivo, Stellaria media; settings: Stellaria media, 504 h
Outline: as §2

[22] = tested on: LOLRI; test: Post-emergence herbicidal action against LOLRI; assay type: in vivo, Lolium rigidum; settings: Lolium rigidum, 504 h, dosage 80 g/ha
Outline: as §2

[23] = tested on: POLCO; test: Pre-emergence herbicidal action against POLCO; assay type: in vivo, Polygonum convolvulus; settings: Fallopia convolvulus, 504 h, dosage 320 g/ha
Outline: as §1

[24] = scored visually after 3 weeks vs untreated controls

Structure (SMILES) | pest or weed control at 80 g/ha [1] [%] | pest or weed control at 320 g/ha [1] [%] | pest or weed control at 80 g/ha [2] [%] | pest or weed control at 80 g/ha [3] [%] | pest or weed control at 80 g/ha [4, 24] [%] | pest or weed control at 320 g/ha [4] [%] | pest or weed control at 20 g/ha [5] [%] | pest or weed control at 80 g/ha [5] [%] | pest or weed control at 80 g/ha [6] [%] | pest or weed control at 320 g/ha [6] [%] | pest or weed control at 80 g/ha [8] [%] | pest or weed control at 320 g/ha [8] [%] | pest or weed control at 80 g/ha [10] [%] | pest or weed control at 320 g/ha [11] [%] | pest or weed control at 80 g/ha [12] [%] | pest or weed control at 80 g/ha [13] [%] | pest or weed control at 320 g/ha [13] [%] | pest or weed control at 320 g/ha [14] [%] | pest or weed control at 80 g/ha [15] [%] | pest or weed control at 320 g/ha [15] [%] | other results
CNC(=O)c1c(C(F)(F)F)ccc(C(=O)Nc2nnnn2C)c1SC [Example 1-81] | 90 | 100 | 90 | 90 | 100 | 100 | 90 | 90 | 100 | 100 | 90 | 100 | 90 | 100 | 80 | 100 | 100 | 100 | 100 | 100 | pest or weed control at 20 g/ha ([2]; 20 g/ha): 80%; pest or weed control at 20 g/ha ([3]; dosage 20 g/ha): 80%; pest or weed control at 80 g/ha [7]: 90%; pest or weed control at 20 g/ha ([9]; dosage 20 g/ha): 80%; pest or weed control at 80 g/ha ([9]; dosage 80 g/ha): 100%; pest or weed control at 80 g/ha ([11]; 80 g/ha, scored visually after 3 weeks vs untreated controls (100% = plants have died, 0% = like control plants)): 80%; pest or weed control at 80 g/ha ([14]; 80 g/ha): 80%; pest or weed control at 320 g/ha [16]: 100%; pest or weed control at 20 g/ha [17]: 80%; pest or weed control at 80 g/ha [17]: 90%; pest or weed control at 80 g/ha [18]: 80%; pest or weed control at 80 g/ha [19]: 100%; pest or weed control at 320 g/ha [19]: 100%; pest or weed control at 80 g/ha [20]: 90%; pest or weed control at 20 g/ha ([21]; 20 g/ha): 90%; pest or weed control at 80 g/ha [21]: 90%
Cn1nnnc1NC(=O)c1ccc(C(F)(F)F)c(C(N)=O)c1Cl [Example 1-338] | 90 | 100 | 100 | 100 | 100 | 100 | 90 | 100 | 90 | 100 | 80 | 100 | 100 | 100 | 90 | 80 | 100 | 100 | 90 | 100 | pest or weed control at 80 g/ha [22]: 80%; pest or weed control at 20 g/ha ([4]; 20 g/ha, scored visually after 3 weeks vs untreated controls): 100%; pest or weed control at 320 g/ha [23]: 80%; pest or weed control at 20 g/ha ([10]; 20 g/ha): 80%; pest or weed control at 20 g/ha ([12]; dosage 20 g/ha): 80%; pest or weed control at 80 g/ha ([16]; dosage 80 g/ha): 90%; pest or weed control at 320 g/ha [16]: 100%; pest or weed control at 20 g/ha [17]: 90%; pest or weed control at 80 g/ha [17]: 90%; pest or weed control at 80 g/ha [18]: 90%; pest or weed control at 80 g/ha [19]: 90%; pest or weed control at 320 g/ha [19]: 90%; pest or weed control at 20 g/ha ([20]; dosage 20 g/ha): 80%; pest or weed control at 80 g/ha [20]: 100%; pest or weed control at 80 g/ha [21]: 90%
